The values that follow come from patent US10640520B2, “Boronic acid derivatives” (MERCK PATENT GMBH, priority 2014, dated 2020).

SMILES strings stand for the structures.

In one test the target is LMP7 (Homo sapiens, UniProt P20618+P28062). Nature of the test: Determination of LMP7 activity (fluorescence intensity assay, Suc-LLVY-AMC). Type of test: biochemical. Particulars: purified human immunoproteasome, incubation for 20 minutes. As to the method:
Determination of LMP7 Activity:
Measurement of LMP7 inhibition is performed in 384 well format based on fluorescence intensity assay.
(§1) Purified human immunoproteasome (0.25 nM) and serial diluted compounds in DMSO (range of concentrations from 30 μM to 15 pM) or controls are incubated for 20 minutes or 120 minutes (long incubation) at 25° C. in assay buffer containing 50 mM Tris pH 7.4, 0.03% SDS, 1 mM EDTA and 1% DMSO. The reaction is initiated by the addition of the fluorogenic peptide substrate, Suc-LLVY-AMC (Bachem 1-1395), at a concentration of 40 μM. After 60 minutes of incubation at 37° C., fluorescence intensity is measured at λex=350 nm and λem=450 nm with a fluorescence reader (Perkin Elmer Envision reader or equivalent).
(§2) Unless indicated otherwise the results are obtained after incubation for 20 minutes.

The target in a further test is Beta5 (Homo sapiens, UniProt P20618+P28074). Nature of the test: Determination of Beta5 activity (fluorescence intensity assay, Suc-LLVY-AMC). In kind it is biochemical. Conditions: incubation for 20 minutes; for IC50: purified human constitutive proteasome. On the procedure:
Determination of Beta5 Activity:
Measurement of Beta5 inhibition is performed in 384 well format based on fluorescence intensity assay.
as §1, with “constitutive proteasome (1.25” for “immunoproteasome (0.25”, “[…])” for “pM)”
as §2

The IC50 is the concentration that gives 50% inhibition. The low end stands for greater potency in that assay, the high end for weaker potency in that assay. For `CCc1cccc(C[C@H](NC(=O)CCCN2CCOC2=O)B(O)O)c1` [Compound 1, [(1R)-2-(3-ethylphenyl)-1-[4-(2-oxooxazolidin-3-yl)butanoylamino]-ethyl]boronic acid], the IC50 against LMP7 was 50 to 500 nM; against Beta5, greater than 5000 nM. Also, the “Selectivity LMP7 vs Beta5” value at Beta5 was “++ (10 ≤ Selectivity < 30)”.

`O=C(CCN1CCCC1=O)N[C@H](Cc1ccccc1)B(O)O` [Compound 2, [(1S)-1-[3-(2-oxopyrrolidin-1-yl)propaqanoylamino]-2-phenyl-ethyl]-boronic acid]: the IC50 against LMP7 was less than 50 nM. Also, on Beta5, the “Selectivity LMP7 vs Beta5” value is “+++ (30 ≤ Selectivity < 50)” and the IC50 was 500 to 5000 nM.

At LMP7, `O=C(CCN1CCCCC1=O)N[C@H](Cc1ccccc1)B(O)O` [Compound 3, [(1S)-1-[3-(2-oxo-1-piperidyl)propanoylamino]-2-phenyl-ethyl]boronic acid] displayed an IC50 of 50 to 500 nM. In addition, at Beta5, the “Selectivity LMP7 vs Beta5” value was “+++ (30 ≤ Selectivity < 50)” and the IC50 fell in the range of 500 to 5000 nM.

`Cc1ccc(C[C@H](NC(=O)CCN2CCCC2=O)B(O)O)cc1` [Compound 4, [(1R)-1-[3-(2-oxopyrrolidin-1-yl)propanoylamino]-2-(p-tolyl)ethyl]-boronic acid]: on LMP7, the IC50 was less than 50 nM. Besides, at Beta5, the “Selectivity LMP7 vs Beta5” value is “++ (10 ≤ Selectivity < 30)” and the IC50 was 50 to 500 nM.

Consider `O=C(CCN1C(=O)CCCC1=O)N[C@@H](Cc1ccccc1)B(O)O` [Compound 5, [(1R)-1-[3-(2,6-dioxo-1-piperidyl)propanoylamino]-2-phenyl-ethyl]-boronic acid], for which the IC50 against LMP7 is 500 to 5000 nM; at Beta5 it was greater than 5000 nM. In addition, the “Selectivity LMP7 vs Beta5” value on Beta5 is reported as “+++ (30 ≤ Selectivity < 50)”.

On to `O=C(CCN1CCCC1=O)N[C@@H](Cc1ccc2ccccc2c1)B(O)O` [Compound 6, [(1R)-2-(2-naphthyl)-1-[3-(2-oxopyrrolidin-1-yl)propanoylamino]-ethyl]boronic acid], for which the IC50 was less than 50 nM at LMP7 and 50 to 500 nM at Beta5. Further, the “Selectivity LMP7 vs Beta5” value on Beta5 was “++ (10 ≤ Selectivity < 30)”.

For `O=C(CCN1CCCCC1=O)N[C@@H](Cc1ccc2ccccc2c1)B(O)O` [Compound 7, [(1R)-2-(2-naphthyl)-1-[3-(2-oxo-1-piperidyl)propanoylamino]ethyl]-boronic acid], the IC50 against LMP7 is less than 50 nM. For the same compound, at Beta5, the “Selectivity LMP7 vs Beta5” value is recorded as “++ (10 ≤ Selectivity < 30)” and the IC50 lay in the range of 50 to 500 nM.

On to `O=C(CCN1CCCC1=O)N[C@@H](Cc1ccc2c(c1)OCCO2)B(O)O` [Compound 8, [(1R)-2-(2,3-dihydro-1,4-benzodioxin-6-yl)-1-[3-(2-oxopyrrolidin-1-yl)propanoylamino]ethyl]boronic acid], for which the IC50 against LMP7 was less than 50 nM; on Beta5, 500 to 5000 nM. The “Selectivity LMP7 vs Beta5” value on Beta5 is on record as “+++ (30 ≤ Selectivity < 50)”.

In the case of `Cc1ccc(C[C@H](NC(=O)CCN2CCCCC2=O)B(O)O)cc1` [Compound 9, [(1R)-1-[3-(2-oxo-1-piperidyl)propanoylamino]-2-(p-tolyl)ethyl]boronic acid], the IC50 against LMP7 was less than 50 nM. Besides, at Beta5, the “Selectivity LMP7 vs Beta5” value is “++ (10 ≤ Selectivity < 30)” and the IC50 was 500 to 5000 nM.

For `O=C(CCN1CCCC1=O)N[C@@H](Cc1cccc2ccccc12)B(O)O` [Compound 10, [(1R)-2-(1-naphthyl)-1-[3-(2-oxopyrrolidin-1-yl)propanoylamino]ethyl]-boronic acid], on LMP7, the IC50 fell in the range of 50 to 500 nM. Moreover, at Beta5, the “Selectivity LMP7 vs Beta5” value is “++ (10 ≤ Selectivity < 30)” and the IC50 was 500 to 5000 nM.

Turning to `O=C(CCN1CCCCC1=O)N[C@@H](Cc1cccc2ccccc12)B(O)O` [Compound 11, [(1R)-2-(1-naphthyl)-1-[3-(2-oxo-1-piperidyl)propanoylamino]ethyl]-boronic acid], the IC50 against LMP7 lay within 50 to 500 nM. For the same compound, at Beta5, the “Selectivity LMP7 vs Beta5” value is “+++ (30 ≤ Selectivity < 50)” and the IC50 lay in the range of 500 to 5000 nM.

For the compound `O=C(CCN1CC(c2ccccc2)CC1=O)N[C@@H](Cc1ccccc1)B(O)O` (stereo partly drawn) [Compound 12, [(1R)-1-[3-(2-oxo-4-phenyl-pyrrolidin-1-yl)propanoylamino]-2-phenyl-ethyl]boronic acid], the IC50 against LMP7 is less than 50 nM. Further, at Beta5, the “Selectivity LMP7 vs Beta5” value is reported as “++ (10 ≤ Selectivity < 30)” and the IC50 fell in the range of 50 to 500 nM.

Consider `O=C(CCN1CCCCCC1=O)N[C@@H](Cc1ccccc1)B(O)O` [Compound 13, [(1R)-1-[3-(2-oxoazepan-1-yl)propanoylamino]-2-phenyl-ethyl]boronic acid], for which the IC50 against LMP7 is 50 to 500 nM; at Beta5 it was 500 to 5000 nM. On Beta5, the “Selectivity LMP7 vs Beta5” value is “++ (10 ≤ Selectivity < 30)”.

`O=C(CCN1CCN(c2ccccc2)C1=O)N[C@@H](Cc1ccc(F)cc1)B(O)O` [Compound 14, [(1R)-2-(4-fluorophenyl)-1-[3-(2-oxo-3-phenyl-imidazolidin-1-yl)propanoylamino]ethyl]boronic acid]: the IC50 against LMP7 was less than 50 nM; against Beta5, 50 to 500 nM. For the same compound, at Beta5, the “Selectivity LMP7 vs Beta5” value was “++ (10 ≤ Selectivity < 30)”.

In the case of `Cc1ccc(C[C@H](NC(=O)CCN2CCN(c3ccccc3)C2=O)B(O)O)cc1` [Compound 15, [(1R)-1-[3-(2-oxo-3-phenyl-imidazolidin-1-yl)propanoylamino]-2-(p-tolyl)ethyl]boronic acid], the IC50 on LMP7 was less than 50 nM; against Beta5, 50 to 500 nM. Also, at Beta5, the “Selectivity LMP7 vs Beta5” value is reported as “++ (10 ≤ Selectivity < 30)”.

For the compound `Cc1ccc(C[C@H](NC(=O)CCN2CCCC2=O)B(O)O)cc1C` [Compound 16, [(1R)-2-(3,4-dimethylphenyl)-1-[3-(2-oxopyrrolidin-1-yl)propanoylamino]ethyl]boronic acid], the IC50 against LMP7 was less than 50 nM. Also, on Beta5, the “Selectivity LMP7 vs Beta5” value is given as “+++++ (Selectivity ≥ 70)” and the IC50 lay within 500 to 5000 nM.

With `Cc1ccc(C[C@H](NC(=O)CCN2CCC(C)(C)C2=O)B(O)O)cc1` [Compound 17, [(1R)-1-[3-(3,3-dimethyl-2-oxo-pyrrolidin-1-yl)propanoylamino]-2-(p-tolyl)ethyl]boronic acid], the half-inhibitory concentration (IC50) on LMP7 was less than 50 nM. Besides, on Beta5, the “Selectivity LMP7 vs Beta5” value is “++ (10 ≤ Selectivity < 30)” and the IC50 was 50 to 500 nM.

`Cc1ccc(C[C@H](NC(=O)CCN2C(=O)CCC2(C)C)B(O)O)cc1` [Compound 18, [(1R)-1-[3-(2,2-dimethyl-5-oxo-pyrrolidin-1-yl)propanoylamino]-2-(p-tolyl)ethyl]boronic acid] gave an IC50 at LMP7 of 50 to 500 nM. Besides, on Beta5, the “Selectivity LMP7 vs Beta5” value is recorded as “+++ (30 ≤ Selectivity < 50)” and the IC50 is 500 to 5000 nM.

`O=C(CCN1CCCC1=O)N[C@@H](Cc1coc2ccccc12)B(O)O` [Compound 19, [(1R)-2-(benzofuran-3-yl)-1-[3-(2-oxopyrrolidin-1-yl)propanoylamino]-ethyl]boronic acid] had an IC50 at LMP7 of less than 50 nM. Further, at Beta5, the “Selectivity LMP7 vs Beta5” value is “++++ (50 ≤ Selectivity < 70)” and the IC50 was in the range of 50 to 500 nM.

With `COCc1ccc(C[C@H](NC(=O)CCN2CCCC2=O)B(O)O)cc1` [Compound 20, [(1R)-2-[4-(methoxymethyl)phenyl]-1-[3-(2-oxopyrrolidin-1-yl)propanoylamino]ethyl]boronic acid], the IC50 on LMP7 was 50 to 500 nM; against Beta5 it was 500 to 5000 nM. Also, the “Selectivity LMP7 vs Beta5” value on Beta5 is listed as “++ (10 ≤ Selectivity < 30)”.

In the case of `Cc1ccc(C[C@H](NC(=O)CN2CCCC2=O)B(O)O)cc1` [Compound 21, [(1R)-1-[[2-(2-oxopyrrolidin-1-yl)acetyl]amino]-2-(p-tolyl)ethyl]boronic acid], on LMP7, the IC50 was 50 to 500 nM. Further, at Beta5, the “Selectivity LMP7 vs Beta5” value is “++ (10 ≤ Selectivity < 30)” and the IC50 lay within 500 to 5000 nM.

Compound `Cc1ccc(C[C@H](NC(=O)CCN2CCCCS2(=O)=O)B(O)O)cc1` [Compound 22, [(1R)-1-[3-(1,1-dioxothiazinan-2-yl)propanoylamino]-2-(p-tolyl)ethyl]-boronic acid] came in with an IC50 at LMP7 of less than 50 nM. Also, on Beta5, the “Selectivity LMP7 vs Beta5” value is recorded as “++ (10 ≤ Selectivity < 30)” and the IC50 is 50 to 500 nM.

As to `Cc1ccc(C[C@H](NC(=O)CC[C@@H]2NC(=O)NC2=O)B(O)O)cc1` [Compound 23, [(1R)-1-[3-[(4S)-2,5-dioxoimidazolidin-4-yl]propanoylamino]-2-(p-tolyl)ethyl]boronic acid], the IC50 against LMP7 was less than 50 nM. Besides, at Beta5, the “Selectivity LMP7 vs Beta5” value was “++ (10 ≤ Selectivity < 30)” and the IC50 lay in the range of 500 to 5000 nM.

For the compound `O=C(CCN1CCCCC1=O)N[C@@H](Cc1coc2ccccc12)B(O)O` [Compound 24, [(1R)-2-(benzofuran-3-yl)-1-[3-(2-oxo-1-piperidyl)propanoylamino]-ethyl]boronic acid], the IC50 was less than 50 nM at LMP7 and 50 to 500 nM against Beta5. In addition, the “Selectivity LMP7 vs Beta5” value at Beta5 is “+++ (30 ≤ Selectivity < 50)”.
